Experimental data published in article PMC9286291, “A new adenine nucleotide transporter located in the ER is essential for maintaining the growth of Toxoplasma gondii” (PLoS Pathogens, 2022).

What was measured:
[1] = biological target: T1, PfANT (Plasmodium falciparum, UniProt Q8IIM9); assay: inhibition of [α-32P]ATP uptake into intact E. coli cells; assay type: cell-based; details: 25 nM [α-32P]ATP, unlabelled competitor at 100-fold concentration, 15 min, 30 °C, 50 mM potassium phosphate pH 7.0
T1 construct: gene PF3D7_1113300; expressed in the plasma membrane of intact IPTG-induced E. coli from an encoding plasmid
T1 sequence (Q8IIM9 1-343): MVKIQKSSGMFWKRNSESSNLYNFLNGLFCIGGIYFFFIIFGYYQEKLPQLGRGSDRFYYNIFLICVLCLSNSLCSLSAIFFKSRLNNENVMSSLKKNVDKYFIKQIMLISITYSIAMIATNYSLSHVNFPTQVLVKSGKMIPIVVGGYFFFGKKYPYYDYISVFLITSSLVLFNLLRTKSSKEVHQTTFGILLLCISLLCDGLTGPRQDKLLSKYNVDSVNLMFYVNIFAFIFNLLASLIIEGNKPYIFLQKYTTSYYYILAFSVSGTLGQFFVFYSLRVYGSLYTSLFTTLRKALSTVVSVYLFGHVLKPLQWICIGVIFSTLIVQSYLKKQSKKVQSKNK
Description: inhibition of [α-32P]ATP uptake into intact E. coli cells on PfANT

[2] = biological target: T2, TgANT (Toxoplasma gondii, UniProt A0A7J6KCX5); assay: as above; assay type: cell-based; details: 25 nM [α-32P]ATP, unlabelled competitor at 100-fold concentration, 15 min, 30 °C, 50 mM potassium phosphate pH 7.0
T2 construct: gene TGRH88_003770; codon-optimised CDS in pET16b, expressed in the plasma membrane of intact E. coli BL21 (DE3); HA tag in the IFA construct
T2 sequence (A0A7J6KCX5 1-413): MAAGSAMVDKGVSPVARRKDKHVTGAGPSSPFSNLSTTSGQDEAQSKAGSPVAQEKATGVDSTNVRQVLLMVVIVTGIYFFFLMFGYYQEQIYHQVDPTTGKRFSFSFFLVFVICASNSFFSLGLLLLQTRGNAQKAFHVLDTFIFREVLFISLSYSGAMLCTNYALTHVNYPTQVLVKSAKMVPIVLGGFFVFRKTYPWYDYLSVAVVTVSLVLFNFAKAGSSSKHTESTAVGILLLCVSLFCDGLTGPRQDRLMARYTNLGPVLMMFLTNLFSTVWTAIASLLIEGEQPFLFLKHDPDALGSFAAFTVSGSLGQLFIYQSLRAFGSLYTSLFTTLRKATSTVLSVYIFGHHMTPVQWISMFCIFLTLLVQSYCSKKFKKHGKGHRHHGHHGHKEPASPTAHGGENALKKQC
Description: inhibition of [α-32P]ATP uptake into intact E. coli cells on TgANT

Nc1ncnc2c1ncn2[C@@H]1O[C@H](COP(=O)(O)OP(=O)(O)O)[C@@H](O)[C@H]1O [ADP]
Uptake(% of control) [1]: 28.9 ±3.8 % of control
Uptake(% of control) [2]: 3.9 ±0.31 % of control

Nc1ncnc2c1ncn2[C@@H]1O[C@H](COP(=O)(O)OP(=O)(O)OP(=O)(O)O)[C@@H](O)[C@H]1O [ATP]
Uptake(% of control) [1]: 23.8 ±1.4 % of control
Uptake(% of control) [2]: 3.4 ±0.25 % of control
